Source: patent publication US9289429B2, “Compounds and methods for inhibiting phosphate transport” (Ardelyx, Inc., priority 2010, dated 2016)

Experiments:
rat NaP2b (SLC34A2) = target: T1, rat NaP2b (SLC34A2) (Rattus norvegicus, UniProt Q9JJ09); test: NaP2b-mediated Pi transport (33P uptake) in transfected HEK293 cells, rat transporter; assay type: cell-based; details: HEK293 cells transfected with rat NaP2b, 33P phosphate uptake, 100 uM KH2PO4; read-out: pIC50 range for rat Nap2b (converted)
T1 construct: host or cells: HEK293
T1 sequence (Q9JJ09 1-695): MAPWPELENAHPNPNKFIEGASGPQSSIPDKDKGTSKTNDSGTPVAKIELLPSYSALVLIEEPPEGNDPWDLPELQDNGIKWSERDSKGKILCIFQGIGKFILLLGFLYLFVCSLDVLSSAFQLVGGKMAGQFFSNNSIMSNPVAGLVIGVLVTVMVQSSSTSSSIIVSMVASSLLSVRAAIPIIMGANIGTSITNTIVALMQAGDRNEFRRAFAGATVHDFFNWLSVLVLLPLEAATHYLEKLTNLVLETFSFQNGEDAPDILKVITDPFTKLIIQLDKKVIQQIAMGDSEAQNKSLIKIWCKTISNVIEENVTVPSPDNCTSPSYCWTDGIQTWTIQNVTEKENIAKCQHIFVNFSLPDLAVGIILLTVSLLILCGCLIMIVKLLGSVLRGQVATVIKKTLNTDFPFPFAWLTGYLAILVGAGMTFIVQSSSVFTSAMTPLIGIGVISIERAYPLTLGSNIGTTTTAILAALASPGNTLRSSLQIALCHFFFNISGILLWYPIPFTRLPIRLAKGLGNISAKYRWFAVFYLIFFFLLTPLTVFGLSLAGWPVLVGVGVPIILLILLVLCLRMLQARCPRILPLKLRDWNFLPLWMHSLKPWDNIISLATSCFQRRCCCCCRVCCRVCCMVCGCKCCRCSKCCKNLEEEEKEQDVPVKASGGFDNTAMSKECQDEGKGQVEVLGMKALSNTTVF
Experimental: (§1) HEK293 cells were obtained from the American Type Culture collection and propagated per their instructions. Expression clones for rat and human NaP2b (SLC34A2) were obtained from Open Biosystems (Catalog numbers MRN1768-9510282, and MHS1010-99823026, respectively). The sequence of the human protein was mutated to insert a threonine after residue 37, and to introduce a N39D mutation.
(§2) The rate of phosphate (Pi) uptake into HEK293 cells was measured using a modification of the method described by Mohrmann et al. (Mohrmann, I., Mohrmann, M., Biber, J., and Murer, H. (1986) Am. J. Phys. 250(3 Pt 1):G323-30.) Transfected HEK293 cells were treated with a pharmacological agent to minimize endogenous PiT-mediated phosphate transport activity, such that the only remaining sodium-dependent phosphate transport activity is that which was bestowed by introduction of the NaP2b genes.
(§3) Cells were seeded into 96-well plates at 25,000 cells/well and cultured overnight. Lipofectamine 2000 (Invitrogen) was used to introduce the NaP2b cDNA, and the cells were allowed to approach confluence during a second overnight incubation. […] Cells were then overlayed with either choline uptake buffer or sodium uptake buffer (14 mM Tris, 137 mM sodium chloride, 5.4 mM KCl, 2.8 mM CaCl2, 1.2 mM MgSO4, 100 uM KH2PO4, PiT-silencing agent, 1 mg/mL Bovine Serum Albumin, pH 7.4) containing 6-9 uCi/mL ^33P orthophosphoric acid (Perkin Elmer) and test compound. Each compound was tested at twelve concentrations ranging from 0.1 nM to 30 uM. Assays were run in duplicate.
(§4) After incubation for 3-30 minutes at room temperature, assay mixtures were removed, and the cells were washed twice with ice cold stop solution (137 mM sodium chloride, 14 mM Tris, pH 7.4). Cells were lysed by addition of 20 μL 0.1% Tween 80 followed by 100 μL scintillation fluid, and counted using a TopCount (Perkin Elmer).
(§5) pIC50 (the negative log of the IC50) values of the test compounds were calculated using GraphPad Prism.

human NaP2b (SLC34A2) = target: T2, human NaP2b (SLC34A2) (Homo sapiens, UniProt O95436); test: NaP2b-mediated Pi transport (33P uptake) in transfected HEK293 cells, human transporter; assay type: cell-based; details: HEK293 cells transfected with human NaP2b (Thr inserted after residue 37, N39D), 33P phosphate uptake, 100 uM KH2PO4; read-out: pIC50 range for human Nap2b (converted)
T2 construct: host or cells: HEK293
T2 sequence (O95436 1-690): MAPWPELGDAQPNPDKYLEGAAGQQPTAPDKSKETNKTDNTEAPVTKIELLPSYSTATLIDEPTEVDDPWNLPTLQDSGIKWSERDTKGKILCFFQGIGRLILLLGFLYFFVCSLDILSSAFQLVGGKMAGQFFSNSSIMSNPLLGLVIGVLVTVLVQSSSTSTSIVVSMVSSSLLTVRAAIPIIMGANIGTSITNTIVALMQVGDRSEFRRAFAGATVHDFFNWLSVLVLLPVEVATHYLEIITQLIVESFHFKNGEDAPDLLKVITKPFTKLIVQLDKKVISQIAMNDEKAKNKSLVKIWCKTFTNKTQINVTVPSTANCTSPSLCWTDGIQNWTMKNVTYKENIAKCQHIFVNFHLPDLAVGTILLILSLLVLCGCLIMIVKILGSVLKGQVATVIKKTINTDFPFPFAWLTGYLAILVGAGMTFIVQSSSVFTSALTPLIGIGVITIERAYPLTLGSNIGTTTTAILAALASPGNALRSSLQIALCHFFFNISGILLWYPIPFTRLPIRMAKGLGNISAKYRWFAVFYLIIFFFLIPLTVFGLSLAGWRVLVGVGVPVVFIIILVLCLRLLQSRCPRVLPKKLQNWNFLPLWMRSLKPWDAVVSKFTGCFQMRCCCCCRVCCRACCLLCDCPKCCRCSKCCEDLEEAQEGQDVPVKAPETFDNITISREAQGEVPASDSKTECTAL
Experimental: as §1, §2, §3, §4, §5

NaPi2b = target: T3, NaPi2b (Rattus norvegicus, UniProt Q9JJ09); test: Competition with phosphate: Pi transport assay repeated at 2.1 vs 0.1 mM phosphate; assay type: cell-based; details: potency for inhibition of NaPi2b at 2.1 vs 0.1 mM phosphate
T3 construct: host or cells: HEK293
T3 sequence (Q9JJ09 1-695): T1 sequence (Q9JJ09 1-695)
Experimental: To ascertain if an inhibitor was competitive for binding with phosphate, the procedure was repeated, but raising the concentration of the substrate in the assay mixture from 0.1 to 2.1 mM phosphate.

[1] = Fecal recovery of orally administered compounds; assay type: in vivo; details: rat, oral gavage, feces collected until 48 hr after dosing, same animals as Example 22
Experimental: Quantitative determination of test compound level in feces after oral gavage was performed using the same set of animals used to determine test compound concentration in plasma (Example 22). The animals were kept in metabolic cages and feces were collected from the time of dosing until 48 hr after dosing. Upon collection, feces was dried by lyophilization and ground to a visually homogenous powder. Duplicate samples of ground feces from each individual animal were weighed out and extracted using organic solvent. Extracted samples were then diluted into mobile phase and test compound levels were quantitatively determined by LC-MS/MS analysis as described in “Example 22” except that the standard curve was prepared in a feces matrix. Extraction conditions were not optimized for individual compounds, and thus may represent a minimal level of recovery.

[2] = Stability in simulated gastric and intestinal fluid; assay type: in vitro ADME; details: incubation 6 hr, 1-20 μM
Experimental: Test compounds were incubated at 1-20 μM in simulated gastric fluid (SGF; standard USP solution with 3 mg/mL pepsin) or simulated intestinal fluid (SIF; standard USP solution with 3 mg/mL pancreatin) for 3 hr or 6 hr. HPLC-UV or HPLC-MS were used to determine test compound levels using peak area %. Results (Table 5) were reported as the percentage of test compound remaining after incubation in a given condition relative to test compound present at t=0 in the same condition.

| SMILES | IC50 (rat NaP2b (SLC34A2)) [µM] | further results |
| --- | --- | --- |
| O=C(O)CCSCc1cccc(C(=O)Nc2ccc(N3CCCCC3)cc2C(=O)Nc2ncc(-c3cccc(C(F)(F)F)c3)cn2)c1 [Example 14, 3-((3-((4-(Piperidin-1-yl)-2-((5-(3-(trifluoromethyl)phenyl)pyrimidin-2-yl)carbamoyl)phenyl)carbamoyl)benzyl)thio)propanoic acid] | 10 to 31.6 |  |
| Cc1ccc(-c2cnc(NC(=O)c3cc(N4CCCCC4)ccc3NC(=O)c3cccc(CSCCC(=O)O)c3)cn2)cc1C [Example 1, 3-((3-((2-((5-(3,4-Dimethylphenyl)pyrazin-2-yl)carbamoyl)-4-(piperidin-1-yl)phenyl)carbamoyl)benzyl)thio)propanoic acid] | 1 to 7.94 |  |
| Cc1ccc(-c2cnc(NC(=O)c3cc(N4CCCCC4)ccc3NC(=O)c3cccc(C(=O)NCCOCCO)c3)cn2)cc1C [Example 5, N1-(2-((5-(3,4-Dimethylphenyl)pyrazin-2-yl)carbamoyl)-4-(piperidin-1-yl)phenyl)-N3-(2-(2-hydroxyethoxy)ethyl)isophthalamide] | 10 to 31.6 |  |
| O=C(NCCOCCO)c1cccc(C(=O)Nc2ccc(N3CCCCC3)cc2C(=O)Nc2ncc(-c3cccc(C(F)(F)F)c3)cn2)c1 [Example 8] | 10 to 31.6 |  |
| O=C(NCCOCCO)c1cccc(C(=O)Nc2ccc(N3CCCCC3)cc2C(=O)Nc2cnc(-c3cccc(C(F)(F)F)c3)cn2)c1 [Example 6, N1-(2-(2-Hydroxyethoxy)ethyl)-N3-(4-(piperidin-1-yl)-2-((5-(3-(trifluoromethyl)phenyl)pyrazin-2-yl)carbamoyl)phenyl)isophthalamide] | 10 to 31.6 |  |
| CN(CCN1CCOCC1)C(=O)c1cccc(C(=O)Nc2ccc(N3CCCCC3)cc2C(=O)Nc2cnc(-c3ccccc3)nc2)c1 [Example 11, N1-Methyl-N1-(2-morpholinoethyl)-N3-(2-((2-phenylpyrimidin-5-yl)carbamoyl)-4-(piperidin-1-yl)phenyl)isophthalamide] | < 1 | IC50 (human NaP2b (SLC34A2)): < 1 µM; Competitive with respect to Pi? (NaPi2b): No; % recovered in feces [1]: 26% |
| CN(CCOCCOCCOCCC(=O)O)C(=O)c1cccc(C(=O)Nc2ccc(N3CCCCC3)cc2C(=O)Nc2cnc(-c3ccccc3)nc2)c1 [Example 15, 2-Methyl-1-oxo-1-(3-((2-((2-phenylpyrimidin-5-yl)carbamoyl)-4-(piperidin-1-yl)phenyl)carbamoyl)phenyl)-5,8,11-trioxa-2-azatetradecan-14-oic acid] | 1 to 7.94 | % remaining, SGF ([2]; simulated gastric fluid with 3 mg/mL pepsin): 97%; % remaining, SIF ([2]; simulated intestinal fluid with 3 mg/mL pancreatin): 98% |
| Cc1ccc(-c2cnc(NC(=O)c3cc(N4CCCCC4)ccc3NC(=O)c3cccc(C(=O)NCCOCCO)c3)nc2)cc1C [Example 16, N1-(2-((5-(3,4-Dimethylphenyl)pyrimidin-2-yl)carbamoyl)-4-(piperidin-1-yl)phenyl)-N3-(2-(2-hydroxyethoxy)ethyl)isophthalamide] | 10 to 31.6 |  |
| Cc1ccc(-c2cnc(NC(=O)c3cc(N4CCCCC4)ccc3NC(=O)c3cccc(CSCCC(=O)O)c3)nc2)cc1C [Example 13, 3-(3-(2-(5-(3,4-dimethylphenyl)pyrimidin-2-ylcarbamoyl)-4-(piperidin-1-yl)phenylcarbamoyl)benzylthio)propanoic acid] | 1 to 7.94 |  |
| CCN(CC)CCN(C)Cc1cccc(C(=O)Nc2ccc(N3CCCCC3)cc2C(=O)Nc2ncc(-c3ccc(C)c(C)c3)cn2)c1 [Example 7, 2-(3-(((2-(Diethylamino)ethyl)(methyl)amino)methyl)benzamido)-N-(5-(3,4-dimethylphenyl)pyrimidin-2-yl)-5-(piperidin-1-yl)benzamide] | 1 to 7.94 |  |
| O=C(O)CCOCCOCCOCCNC(=O)Cc1cccc(SCc2cccc(C(=O)Nc3ccc(N4CCCCC4)cc3C(=O)Nc3ncc(-c4ccccc4)cn3)c2)c1 [Example 17, 2-Oxo-1-(3-((3-((2-((5-phenylpyrimidin-2-yl)carbamoyl)-4-(piperidin-1-yl)phenyl)carbamoyl)benzyl)thio)phenyl)-6,9,12-trioxa-3-azapentadecan-15-oic acid] | 1 to 7.94 | IC50 (human NaP2b (SLC34A2)): 1 to 7.94 µM |
| O=C(O)c1cccc(SCc2cccc(C(=O)Nc3ccc(N4CCCCC4)cc3C(=O)Nc3cnc(-c4ccccc4)nc3)c2)c1 [Example 3, 3-((3-((2-((2-Phenylpyrimidin-5-yl)carbamoyl)-4-(piperidin-1-yl)phenyl)carbamoyl)benzyl)thio)benzoic acid] | 1 to 7.94 |  |
| O=C(O)P(=O)(O)O [PFA, reference compound] |  | Competitive with respect to Pi? (NaPi2b): Yes |
| CN(CCN1CCOCC1)C(=O)c1cccc(C(=O)Nc2ccc(N3CCCCC3)cc2C(=O)Nc2cnc(-c3cccc(C(F)(F)F)c3)nc2)c1 [Example 10, N1-Methyl-N1-(2-morpholinoethyl)-N3-(4-(piperidin-1-yl)-2-((2-(3-(trifluoromethyl)phenyl)pyrimidin-5-yl)carbamoyl)phenyl)isophthalamide] | < 1 | IC50 (human NaP2b (SLC34A2)): < 1 µM; Competitive with respect to Pi? (NaPi2b): No |
| CCN(CC)CCN(C)Cc1cccc(C(=O)Nc2ccc(N3CCCCC3)cc2C(=O)Nc2ncc(-c3cccc(C(F)(F)F)c3)cn2)c1 [Example 9, 2-(3-(((2-(Diethylamino)ethyl)(methyl)amino)methyl)benzamido)-5-(piperidin-1-yl)-N-(5-(3-(trifluoromethyl)phenyl)pyrimidin-2-yl)benzamide] | 10 to 31.6 |  |
